Laboratory results as given in patent publication US20230089557A1, “METHODS OF TREATING DLBCL USING BTK INHIBITORS AND COMBINATIONS THEREOF” (BEIGENE SWITZERLAND GMBH, priority 2020, published 2023).

Tested on: R/R non-GCB DLBCL
Experiment: Compound 1 in combination with anti-CD20 antibody in patients with R/R non-GCB DLBCL
Assay type: in vivo, human
Conditions: for unadjusted ORR: non-GCB DLBCL
Experimental: A total of 121 patients with R/R non-GCB DLBCL were recruited in four Compound 1 treatment studies that were conducted at a similar time period. Two of the four studies were Compound 1 monotherapy (n=79) and two were Compound 1 combined with an anti-CD20 antibody therapy (n=42). Similar inclusion and exclusion criteria and response evaluation criteria were used across all studies. Fifty-six non-GCB patients were further subtyped by gene expression profiling (GEP) using the HTG EdgeSeq DLBCL Cell of Origin Assay. The expression of approximately 90 lymphoma-associated genes from the HTG GEP assay were analyzed by R package limma for correlation with response to Compound 1 treatment. Seventy-seven patient samples were tested by next-generation sequencing (NGS) with a panel of genes. Chi-square test was used to evaluate the correlation between mutations and the objective response rate (ORR).
Combination therapy schedule 1: Compound 1 was administered orally every day in each cycle at 160 mg BID in 28-day cycles, in combination with obinutuzumab, in patients with R/R non-GCB DLBCL. Obinutuzumab was administered for up to 6 cycles consistent with the U.S. label regimen (100 mg at Day 1 Cycle 1, 1000 mg at Day 8 and Day 15, 900 mg at Day 2 Cycle 1 followed by 1000 mg on day one of cycles 2-6).
Combination therapy schedule 2: Compound 1 was administrated orally every day in each cycle at 160 mg BID in 28-day cycles, in combination with rituximab, in patients with R/R non-GCB DLBCL. Rituximab was administered at 375 mg/m2 intravenously on Cycle 1 Days 1, 8, 15, 22, and on Day 1 of Cycles 4, 6, 8, 10. Compound 1 was administered at least 30 minutes prior to the initiation of the rituximab infusion.
42 patients with non-GCB DLBCL were subjected to Compound 1 plus anti-CD20 antibody Combination therapy schedule 1 or 2.

[1] = combination therapy Total (N = 42), ABC Subtype of DLBCL Patients
[2] = combination therapy Total (N = 42), CD79B ITAM_Mut
[3] = combination therapy Total (N = 42), CD79B ITAM_WT
[4] = combination therapy Total (N = 42), CD79B_Mut
[5] = combination therapy Total (N = 42), CD79B_WT
[6] = combination therapy Total (N = 42), MYD88_L265P
[7] = combination therapy Total (N = 42), MYD88_L265P/CD79B_Mut
[8] = combination therapy Total (N = 42), MYD88_WT
[9] = combination therapy Total (N = 42), NOTCH1_Mut
[10] = combination therapy Total (N = 42), NOTCH1_WT
[11] = combination therapy Total (N = 42), Non-GCB DLBCL Patients
[12] = combination therapy Total (N = 42), Non-GCB DLBCL Patients with Sequence Available
[13] = combination therapy Total (N = 42), Other (not MYD88_L265P/CD79B_Mut)
[14] = combination therapy Total (N = 42), Patients with Sequence Available
[15] = plus obinutuzumab (N = 22), ABC Subtype of DLBCL Patients
[16] = plus obinutuzumab (N = 22), CD79B ITAM_Mut
[17] = plus obinutuzumab (N = 22), CD79B ITAM_WT
[18] = plus obinutuzumab (N = 22), CD79B_Mut
[19] = plus obinutuzumab (N = 22), CD79B_WT
[20] = plus obinutuzumab (N = 22), MYD88_L265P
[21] = plus obinutuzumab (N = 22), MYD88_L265P/CD79B_Mut
[22] = plus obinutuzumab (N = 22), MYD88_WT
[23] = plus obinutuzumab (N = 22), NOTCH1_Mut
[24] = plus obinutuzumab (N = 22), NOTCH1_WT
[25] = plus obinutuzumab (N = 22), Non-GCB DLBCL Patients
[26] = plus obinutuzumab (N = 22), Non-GCB DLBCL Patients with Sequence Available
[27] = plus obinutuzumab (N = 22), Other (not MYD88_L265P/CD79B_Mut)
[28] = plus obinutuzumab (N = 22), Patients with Sequence Available
[29] = plus rituximab (N = 20), ABC Subtype of DLBCL Patients
[30] = plus rituximab (N = 20), CD79B ITAM_Mut
[31] = plus rituximab (N = 20), CD79B ITAM_WT
[32] = plus rituximab (N = 20), CD79B_Mut
[33] = plus rituximab (N = 20), CD79B_WT
[34] = plus rituximab (N = 20), MYD88_L265P
[35] = plus rituximab (N = 20), MYD88_L265P/CD79B_Mut
[36] = plus rituximab (N = 20), MYD88_WT
[37] = plus rituximab (N = 20), NOTCH1_Mut
[38] = plus rituximab (N = 20), NOTCH1_WT
[39] = plus rituximab (N = 20), Non-GCB DLBCL Patients
[40] = plus rituximab (N = 20), Non-GCB DLBCL Patients with Sequence Available
[41] = plus rituximab (N = 20), Other (not MYD88_L265P/CD79B_Mut)
[42] = plus rituximab (N = 20), Patients with Sequence Available

## C=CC(=O)N1CCC([C@@H]2CCNc3c(C(N)=O)c(-c4ccc(Oc5ccccc5)cc4)nn32)CC1 [Compound 1, (S)-7-(1-acryloylpiperidin-4-yl)-2-(4-phenoxyphenyl)-4,5,6,7-tetra-hydropyrazolo[1,5-a]pyrimidine-3-carboxamide]
GEP-confirmed activated B-cell DLBCL, first of the two combo-therapies (obinutuzumab)
  ORR: 50%
GEP-confirmed activated B-cell DLBCL, second of the two combo-therapies (rituximab)
  ORR: 40%
[1]
  ORR: 45.5
  Response/Patients: 5/11
[2]
  ORR: 83.3
  Response/Patients: 5/6
Combination therapy Total (N = 42), CD79B ITAM_Mut vs CD79B ITAM_WT
  Difference in ORR (95% CI): 61.1
[3]
  ORR: 22.2
  Response/Patients: 6/27
[4]
  ORR: 75.0
  Response/Patients: 6/8
Combination therapy Total (N = 42), CD79B_Mut vs CD79B_WT
  Difference in ORR (95% CI): 55.0
[5]
  ORR: 20.0
  Response/Patients: 5/25
[6]
  ORR: 66.7
  Response/Patients: 4/6
Combination therapy Total (N = 42), MYD88_L265P vs MYD88_WT
  Difference in ORR (95% CI): 40.7
[7]
  ORR: 75.0
  Response/Patients: 3/4
Combination therapy Total (N = 42), MYD88_L265P/CD79B_Mut vs Other
  Difference in ORR (95% CI): 47.4
[8]
  ORR: 25.9
  Response/Patients: 7/27
[9]
  ORR: 40.0
  Response/Patients: 2/5
Combination therapy Total (N = 42), NOTCH1_Mut vs NOTCH1_WT
  Difference in ORR (95% CI): 7.9
[10]
  ORR: 32.1
  Response/Patients: 9/28
[11]
  ORR: 28.6
  Response/Patients: 12/42
[12]
  ORR: 33.3
  Response/Patients: 11/33
[13]
  ORR: 27.6
  Response/Patients: 8/29
[14]
  ORR: 35.3
  Response/Patients: 12/34
First of the two combo-therapies (obinutuzumab)
  unadjusted ORR: 22.7%
Second of the two combo-therapies (rituximab)
  unadjusted ORR: 35%
[15]
  ORR: 50.0
  Response/Patients: 3/6
[16]
  ORR: 100.0
  Response/Patients: 3/3
Plus obinutuzumab (N = 22), CD79B ITAM_Mut vs CD79B ITAM_WT, in %
  Difference in ORR (95% CI): 91.7
[17]
  ORR: 8.3
  Response/Patients: 1/12
[18]
  ORR: 100.0
  Response/Patients: 3/3
Plus obinutuzumab (N = 22), CD79B_Mut vs CD79B_WT, in %
  Difference in ORR (95% CI): 91.7
[19]
  ORR: 8.3
  Response/Patients: 1/12
[20]
  ORR: 100.0
  Response/Patients: 3/3
Plus obinutuzumab (N = 22), MYD88_L265P vs MYD88_WT, in %
  Difference in ORR (95% CI): 91.7
[21]
  ORR: 100.0
  Response/Patients: 3/3
Plus obinutuzumab (N = 22), MYD88_L265P/CD79B_Mut vs Other, in %
  Difference in ORR (95% CI): 91.7
[22]
  ORR: 8.3
  Response/Patients: 1/12
[23]
  ORR: 66.7
  Response/Patients: 2/3
Plus obinutuzumab (N = 22), NOTCH1_Mut vs NOTCH1_WT
  Difference in ORR (95% CI): 50.0
[24]
  ORR: 16.7
  Response/Patients: 2/12
[25]
  ORR: 22.7
  Response/Patients: 5/22
[26]
  ORR: 26.7
  Response/Patients: 4/15
[27]
  ORR: 8.3
  Response/Patients: 1/12
[28]
  ORR: 31.3
  Response/Patients: 5/16
[29]
  ORR: 40.0
  Response/Patients: 2/5
[30]
  ORR: 66.7
  Response/Patients: 2/3
Plus rituximab (N = 20), CD79B ITAM_Mut vs CD79B ITAM_WT
  Difference in ORR (95% CI): 33.3
[31]
  ORR: 33.3
  Response/Patients: 5/15
[32]
  ORR: 60.0
  Response/Patients: 3/5
Plus rituximab (N = 20), CD79B_Mut vs CD79B_WT
  Difference in ORR (95% CI): 29.2
[33]
  ORR: 30.8
  Response/Patients: 4/13
[34]
  ORR: 33.3
  Response/Patients: 1/3
Plus rituximab (N = 20), MYD88_L265P vs MYD88_WT
  Difference in ORR (95% CI): −6.7
[35]
  ORR: 0.0
  Response/Patients: 0/1
Plus rituximab (N = 20), MYD88_L265P/CD79B_Mut vs Other
  Difference in ORR (95% CI): −41.2
[36]
  ORR: 40.0
  Response/Patients: 6/15
[37]
  ORR: 0.0
  Response/Patients: 0/2
Plus rituximab (N = 20), NOTCH1_Mut vs NOTCH1_WT
  Difference in ORR (95% CI): −43.8
[38]
  ORR: 43.8
  Response/Patients: 7/16
[39]
  ORR: 35.0
  Response/Patients: 7/20
[40]
  ORR: 38.9
  Response/Patients: 7/18
[41]
  ORR: 41.2
  Response/Patients: 7/17
[42]
  ORR: 38.9
  Response/Patients: 7/18
